Where two headings read alike, the source gives them in different places.
Legend:
[1] = test system: recombinant HIV-1 30N 50S 82I 88D; experiment: microbe, parasite or virus in culture; format: cell-based
[2] = test system: recombinant HIV-1 46I 47V 50V; experiment: microbe, parasite or virus in culture; format: cell-based
WT HIV-1 [3] = experiment: microbe, parasite or virus in culture; format: cell-based
[4] = test system: recombinant HIV-1 10I 48V 54V 82A; experiment: microbe, parasite or virus in culture; format: cell-based
[5] = test system: recombinant HIV-1 10I 48V 71V 82A 90M; experiment: microbe, parasite or virus in culture; format: cell-based
[6] = test system: recombinant HIV-1 48V 54V 71V 82S; experiment: microbe, parasite or virus in culture; format: cell-based
[7] = test system: recombinant HIV-1 10I 84V 71V 73S 90M; experiment: microbe, parasite or virus in culture; format: cell-based; conditions: Human immunodeficiency virus 1, MT4, read-out: Cell-based assay (MT-4) EC50/nM 84V 90M
[8] = test system: wild-type HIV-1 strain IIIB; experiment: microbe, parasite or virus in culture; format: cell-based; conditions: Human immunodeficiency virus 1, IIIB
[9] = test system: recombinant HIV-1 strains with resistance mutations in the protease gene; experiment: Cross-Resistance Profile Assay, whole panel; format: cell-based; conditions: {}
in vitro = conditions: human
84V90M HIV protease = 84V90M HIV protease (Human immunodeficiency virus type 1 group M subtype B, UniProt P04585, I572V/L578M); experiment: biochemical; parameters: species or system HIV-1
HIV-1 48V54V82S = experiment: microbe, parasite or virus in culture; format: cell-based
HIV-1 84V90M = experiment: microbe, parasite or virus in culture; format: cell-based; conditions: Human immunodeficiency virus 1, read-out: Cell-based assay (MT-4) EC50/nM 84V90M
HIV-1 48V54V82A = experiment: microbe, parasite or virus in culture; format: cell-based
HIV-1 30N82I88D = experiment: microbe, parasite or virus in culture; format: cell-based
HIV-1 48V82A90M = experiment: microbe, parasite or virus in culture; format: cell-based
HIV-1 46I50V = experiment: microbe, parasite or virus in culture; format: cell-based
WT HIV-1 [10] = experiment: microbe, parasite or virus in culture; format: cell-based; conditions: read-out: Cell-based assay (MT-4) EC50/nM WT
mutant HIV-1 I84V/L90M = experiment: Resistance Evaluation, I84V/L90M fold change; format: cell-based; conditions: EC50 of mutant I84V/L90M relative to wild type; class symbols
[11] = Human immunodeficiency virus 1, MT4, read-out: Cell-based assay (MT-4) EC50/nM 30N 82I 88D
[12] = Human immunodeficiency virus 1, MT4, read-out: Cell-based assay (MT-4) EC50/nM WT
[13] = Human immunodeficiency virus 1, MT4, read-out: Cell-based assay (MT-4) EC50/nM 48V 54V 82A
[14] = Human immunodeficiency virus 1, read-out: Cell-based assay (MT-4) EC50/nM 48V54V82S
[15] = Human immunodeficiency virus 1, read-out: Cell-based assay (MT-4) EC50/nM 48V54V82A
[16] = Human immunodeficiency virus 1, read-out: Cell-based assay (MT-4) EC50/nM 30N82I88D
[17] = Human immunodeficiency virus 1, read-out: Cell-based assay (MT-4) EC50/nM 48V82A90M
[18] = Human immunodeficiency virus 1, read-out: Cell-based assay (MT-4) EC50/nM 46I50V

## CCOP(=O)(COc1ccc(CC2C(O)C(O)C(Cc3ccccc3)N(Cc3ccccc3)C(=O)N2Cc2ccccc2)cc1)OCC (stereo not shown) [listing 1 of 2 here]
[1]; MT-4 cells, strain printed as 30N 82I 88D, read-out: Cell-based assay (MT-4) EC50/nM 30N 82I 88D
  EC50: 293 nM
[2]; MT-4 cells, strain printed as 47I50V, read-out: Cell-based assay (MT-4) EC50/nM 47I 50V
  EC50: 589 nM
WT HIV-1 [3]; MT-4 cells, WT, read-out: Cell-based assay (MT-4) EC50/nM WT
  EC50: 107 nM
[4]; MT-4 cells, strain printed as 48V 54V 82A, read-out: Cell-based assay (MT-4) EC50/nM 48V 54V 82A
  EC50: 1440 nM
[5]; read-out: Cell-based assay (MT-4) EC50/nM 48V 82A 90M, MT-4 cells, strain printed as 48V 82A 90M
  EC50: 3290 nM
[6]; MT-4 cells, strain printed as 48V 54V 82S, read-out: Cell-based assay (MT-4) EC50/nM 48V 54V 82S
  EC50: 1900 nM

## O=C1N(Cc2ccccc2)C(Cc2ccccc2)C(O)C(O)C(Cc2ccc(O)cc2)N1Cc1ccccc1 (stereo not shown) [H/Ph/OH]
[1]; [11]
  EC50: 2950 nM
[7]
  EC50: > 6000 nM
WT HIV-1 [3]; [12]
  EC50: 1260 nM
[4]; [13]
  EC50: > 6000 nM

## CC(C)(C)NC(=O)[C@@H]1CN(Cc2cccnc2)CCN1C[C@@H](O)C[C@@H](Cc1ccccc1)C(=O)N[C@H]1c2ccccc2C[C@H]1O [Indinavir, reference compound]
[8]
  EC50: < 50 nM
[9]
  Total No. of Resistant Viruses: 8

## CC(C)(C)NC(=O)[C@@H]1C[C@@H]2CCCC[C@@H]2CN1C[C@@H](O)[C@H](Cc1ccccc1)NC(=O)[C@H](CC(N)=O)NC(=O)c1ccc2ccccc2n1 [Saquinavir, reference compound]
[8]
  EC50: < 50 nM
[9]
  Total No. of Resistant Viruses: 4

## CCOP(=O)(COc1ccc(CC(NC(=O)OC2COC3OCCC23)C(O)CN(CC(C)C)S(=O)(=O)c2ccc(OC)cc2)cc1)OCc1ccccc1 (stereo not shown) [drawing 608 R1=OEt R2=OBn]
[8]
  EC50: < 50 nM
In vitro
  CC50: < 5000 nM

## CCOP(=O)(COc1ccc(CC2C(O)C(O)C(Cc3ccc(OC)cc3)N(Cc3cccc(N)c3)C(=O)N2Cc2cccc(N)c2)cc1)OCC (stereo not shown) [OCH3, Ph-mNH2, OCH2PO3Et2]
84V90M HIV protease
  IC50: 56 nM
HIV-1 48V54V82S; [14]
  EC50: 117 nM
HIV-1 84V90M
  EC50: 535 nM
HIV-1 48V54V82A; [15]
  EC50: 202 nM
HIV-1 30N82I88D; [16]
  EC50: 18 nM
HIV-1 48V82A90M; [17]
  EC50: 102 nM
HIV-1 46I50V; [18]
  EC50: 36 nM

## CCOP(=O)(COc1ccc(CC2C(O)C(O)C(Cc3ccccc3)N(Cc3cccc(N)c3)C(=O)N2Cc2cccc(N)c2)cc1)OCC (stereo not shown) [H/Ph-mNH2/OCH2PO3Et2]
[1]; [11]
  EC50: 16 nM
[7]
  EC50: 328 nM
[2]; Human immunodeficiency virus 1, MT4, read-out: Cell-based assay (MT-4) EC50/nM 47I 50V
  EC50: 46 nM
WT HIV-1 [3]; [12]
  EC50: 65 nM
[4]; [13]
  EC50: 168 nM
[5]; Human immunodeficiency virus 1, MT4, read-out: Cell-based assay (MT-4) EC50/nM 48V 82A 90M
  EC50: 74 nM
[6]; Human immunodeficiency virus 1, MT4, read-out: Cell-based assay (MT-4) EC50/nM 48V 54V 82S
  EC50: 146 nM

## CCOP(=O)(COc1ccc(CC2C(O)C(O)C(Cc3ccccc3)N(Cc3ccccc3)C(=O)N2Cc2ccccc2)cc1)OCC (stereo not shown) [listing 2 of 2 here]
84V90M HIV protease
  IC50: 48 nM
HIV-1 48V54V82S; [14]
  EC50: 1900 nM
HIV-1 84V90M
  EC50: 2460 nM
HIV-1 48V54V82A; [15]
  EC50: 1440 nM
HIV-1 30N82I88D; [16]
  EC50: 293 nM
HIV-1 48V82A90M; [17]
  EC50: 3290 nM
HIV-1 46I50V; [18]
  EC50: 589 nM

## CCOP(=O)(COc1ccc(CC2C(O)C(O)C(Cc3ccccc3)N(Cc3cccc(N)c3)C(=O)N2Cc2cccc(N)c2)cc1)OCC (stereo not shown) [H, Ph-mNH2, OCH2PO3Et2]
HIV-1 48V54V82S; [14]
  EC50: 146 nM
HIV-1 84V90M
  EC50: 328 nM
HIV-1 48V54V82A; [15]
  EC50: 168 nM
HIV-1 30N82I88D; [16]
  EC50: 16 nM
HIV-1 48V82A90M; [17]
  EC50: 74 nM
HIV-1 46I50V; [18]
  EC50: 46 nM

## CCOP(=O)(COc1ccc(CC2C(O)C(O)C(Cc3ccc(OC)cc3)N(Cc3ccc(O)cc3)C(=O)N2Cc2ccc(O)cc2)cc1)OCC (stereo not shown) [OCH3, Ph-pOH, OCH2PO3Et2]
WT HIV-1 [10]
  EC50: 29 nM
HIV-1 48V54V82S; MT-4, 48V54V82S, read-out: Cell-based assay (MT-4) EC50/nM 48V54V82S
  EC50: 106 nM
HIV-1 48V54V82A; MT-4, 48V54V82A, read-out: Cell-based assay (MT-4) EC50/nM 48V54V82A
  EC50: 67 nM
HIV-1 30N82I88D; MT-4, 30N82I88D, read-out: Cell-based assay (MT-4) EC50/nM 30N82I88D
  EC50: 23 nM
HIV-1 48V82A90M; MT-4, 48V82A90M, read-out: Cell-based assay (MT-4) EC50/nM 48V82A90M
  EC50: 48 nM
HIV-1 46I50V; MT-4, 46I50V, read-out: Cell-based assay (MT-4) EC50/nM 46I50V
  EC50: 68 nM

## COc1ccc(S(=O)(=O)N(CC(C)C)CC(O)C(Cc2ccc(OCP(=O)(O)O)cc2)NC(=O)OC2COC3OCCC23)cc1 (stereo not shown) [drawing 608 R1=OH R2=OH]
Mutant HIV-1 I84V/L90M
  I84V/L90M fold change: − (≦3)
[8]
  EC50: 500 to 5000 nM
In vitro
  CC50: > 50000 nM

Source: patent publication US20040121316A1 (priority 2002, published 2004)
